Source: US20260193254A1, “2-OXOQUINAZOLINE CRYSTALLINE FORMS” (IDEAYA Biosciences, Inc., priority 2022, published 2026)

Tests used:
Assay type in all cases: physicochemical
[1] = Variable humidity and temperature XRPD experiments
Procedure: Based on DVS and DSC results of Form C, Form C starts to loss water when humidity is below 30% or when temperature is higher than about 44° C. […] In order to determine identity of potential form changes after the dehydration and upon the solid-solid transition, variable humidity and variable temperature XRPD techniques were applied. XRPD patterns of the sample were measured online under 25° C./ambient environment (initial)-120° C./N2 protection-25° C./ambient environment-25° C./80% RH (40 min)-25° C./0% RH (15 h), and 25° C./ambient environment (initial)-250° C./N2 protection-25° C./ambient environment. […] Form L coverts back to Form C after exposure to 25° C./80% RH for 40 min.
Based on DVS and DSC results of Form D, Form D starts to loss water when humidity is below 10% or when temperature is higher than 46° C. In order to determine identity of the dehydration product, variable humidity and variable temperature XRPD techniques were applied. XRPD patterns of the sample were measured online with a temperature cycle of 25° C./ambient environment (initial)-130° C./N2 protection (10 min)-25° C./N2 protection-25° C./ambient environment (3h) and two water sorption and desorption cycles of 50% RH (initial)-90% RH (3h)-60% RH (2h)-40% RH (2h)-20% RH (3h)-10% RH (3h)-0% RH (6h)-10% RH (3h)-20% RH (3h)-50% RH at 25° C. […] (higher than dehydration temperature). Form S converts back to Form D after exposure to ambient condition for 3 h.
In order to investigate potential form change of Form A upon heating, variable temperature XRPD technique was applied. XRPD patterns of the sample were measured online with a temperature cycle of 25° C. (initial)-50° C./N2 protection-70° C./N2 protection-250° C./N2 protection-25° C./N2 protection-25° C./ambient condition (3h). […] Form A converts to Form U when temperature is 250° C., and Form U converts to Form T after cooling to 25° C.

[2] = Grinding simulation experiments - dry grinding
Procedure: About 20 mg of Form A, Form D, and Form T were ground manually with a mortar and a pestle for 5 min or 1 min. Potential from transition and degree of crystallinity were evaluated by XRPD.

[3] = Competitive equilibration experiments; details: 25° C. and 50° C.
Procedure: These solvents were saturated with the compound of Formula (I) before addition of the polymorph seeds. Obtained suspension was stirred at 25° C. or 50° C. for 5 days. Solid part (wet cake) was isolated by filtration and investigated by XRPD.

[4] = Grinding simulation experiments - wet grinding (granulation)
Procedure: Water or ethanol was added drop wise to about 20 mg of Form A, Form D, or Form T until solid was wetted sufficiently. Vortex was applied between each addition. Samples were dried under ambient condition for 10 min. Potential form transition and degree of crystallinity were evaluated by XRPD.

[5] = Crystallization from hot saturated solutions by slow cooling; details: 50° C. to 5° C. at 0.1° C./min
Procedure: (§1) Obtained solution or suspension was filtered by a 0.45 μm syringe membrane filter. Clear solutions were cooled to 5° C. at 0.1° C./min. Precipitates were collected by filtration. The solid part (wet cake) was investigated by XRPD. When differences were observed, additional investigations were performed (e.g. DSC, TGA, etc.).

[6] = Crystallization at room temperature by fast evaporation; details: nitrogen flow
Excerpt: The samples are filtered by 0.45 μm nylon filter. Obtained solutions were fast evaporated under nitrogen flow. Solid residues were examined for their polymorphic form.

[7] = Temperature cycling experiments; details: TC8 Acetone/water = 1/1 (v/v) (62 mg/mL), 5-50° C., 6 cycles
Procedure: After 6 cycles, precipitates were collected at 5° C. by centrifugation. The solid part (wet cake) was investigated by XRPD. When differences were observed, additional investigations were performed (e.g. DSC, TGA etc.).

[8] = Vapor diffusion experiments; details: VD6 Ethanol (8), anti-solvent t-Butyl methyl ether, 1:4, room temperature
Procedure: After sonication for about 30 seconds, obtained solution or suspension is filtered by a 0.45 μm syringe membrane filter. A clear solution is obtained. A suitable volume of the clear solution is transferred into a small glass vial (8 mL) without a lid and the lidless small vial was placed into a large glass vial (40 mL) containing anti-solvents in the bottom (solvent: anti-solvent=1:4, v/v). The large vials are tightly capped and placed at room temperature. Precipitates were collected by filtration. Solid part (wet cake) was investigated by XRPD.

[9] = Crystallization from hot saturated solutions by fast cooling; details: 50° C. to ice bath
Procedure: as §1, with “put into an ice bath and agitated.” for “cooled to 5° C. at 0.1° C./min.”

[10] = Equilibration with solvents at 50° C. for 1 week; details: XRPD of wet cake
Procedure: Obtained suspension was filtered. The solid part (wet cake) was investigated by XRPD. When differences were observed, additional investigations were performed (e.g. DSC, TGA etc.).

[11] = variable temperature XRPD, N2 protection

Nc1nc(=O)n(-c2ccccc2Cl)c2nc(C(F)(F)F)ccc12 [Form A, 4-Amino-1-(2-chlorophenyl)-7-(trifluoromethyl)pyrido[2,3-d]pyrimidin-2(1H)-one]
XRPD (XRPD method 2) ([1]; VT16 70° C./37% RH (10 min)): Form A
XRPD (XRPD method 2) ([1]; VT18 25° C./N2 protection (10 min)): Form T
XRPD (XRPD method 2) ([1]; VT19 25° C./37% RH (3 h)): Form T
form change after heating to 70° C. [1, 11]: no form change
form obtained on heating to 250° C. [1, 11]: Form U
XRPD after dry grinding ([2]; Dry grinding for 1 min): substantially amorphous
XRPD after dry grinding ([2]; Dry grinding for 5 min): substantially amorphous
tolerance to dry grinding ([2]; ground manually with mortar and pestle, 5 min or 1 min, XRPD): poor tolerance
form obtained in competitive equilibration experiments (relative stability of Form A and Form I) [3]: Form A were obtained from all the experiments
XRPD after wet grinding ([4]; Ethanol): substantially amorphous
tolerance to granulation with ethanol or water ([4]; wet grinding, XRPD): poor tolerance

Nc1nc(=O)n(-c2ccccc2Cl)c2nc(C(F)(F)F)ccc12 [solid state Form V, 4-Amino-1-(2-chlorophenyl)-7-(trifluoromethyl)pyrido[2,3-d]pyrimidin-2(1H)-one]
Crystalline Form formed by slow cooling of hot saturated solution ([5]; SC2 Ethanol (14 mg/mL)): Form F
Crystalline Form formed by slow cooling of hot saturated solution ([5]; SC4 Acetone (7 mg/mL)): Form G
Crystalline Form formed by slow cooling of hot saturated solution ([5]; SC6 Ethanol/water = 1/1 (v/v) (8 mg/mL)): Form F
Crystalline Form formed by slow cooling of hot saturated solution ([5]; SC8 Ethanol/acetone = 1/1 (v/v) (16 mg/mL)): Form G
Crystalline Form formed by fast evaporation ([6]; FE1 Methanol (14 mg/mL)): Form B
Crystalline Form formed by fast evaporation ([6]; FE2 Ethanol (7 mg/mL)): Solid state Form V
Crystalline Form formed by fast evaporation ([6]; FE3 2-Propanol (4 mg/mL)): Solid state Form V
Crystalline Form formed by fast evaporation ([6]; FE6 Acetone (3 mg/mL)): Form G
Crystalline Form formed by fast evaporation ([6]; FE7 Methyl ethyl ketone (3 mg/mL)): Form G
Crystalline Form formed by fast evaporation ([6]; FE9 Tetrahydrofuran (4 mg/mL)): Form K
Crystalline Form formed by fast evaporation ([6]; FE10 Acetonitrile (3 mg/mL)): Solid state Form V
Crystalline Form formed by fast evaporation ([6]; FE12 Methanol/Ethyl acetate = 1/1 (v/v) (5 mg/mL)): Solid state Form V
Crystalline Form formed by fast evaporation ([6]; FE13 Methanol/Acetonitrile = 1/1 (v/v) (5 mg/mL)): Solid state Form V
Crystalline Form formed by fast evaporation ([6]; FE14 Ethanol/t-Butyl methyl ether = 1/1 (v/v) (5 mg/mL)): Solid state Form V
Crystalline Form formed by fast evaporation ([6]; FE15 Ethanol/Dichloromethane = 1/1 (v/v) (5 mg/mL)): Solid state Form V
Crystalline Form formed by temperature cycling [7]: Form G
Crystalline Form formed by vapor diffusion [8]: Form H
Crystalline Form formed by fast cooling of hot saturated solution ([9]; FC1 Methanol (30 mg/mL)): Form C
Crystalline Form formed by fast cooling of hot saturated solution ([9]; FC2 Ethanol (13 mg/mL)): Solid state Form V
Crystalline Form formed by fast cooling of hot saturated solution ([9]; FC3 2-Propanol (7 mg/mL)): Form J (IPA solvate)
Crystalline Form formed by fast cooling of hot saturated solution ([9]; FC4 Acetone (7 mg/mL)): Form G
Crystalline Form formed by fast cooling of hot saturated solution ([9]; FC5 Methanol/water = 1/1 (v/v) (6 mg/mL)): Form C
Crystalline Form formed by fast cooling of hot saturated solution ([9]; FC6 Ethanol/water = 1/1 (v/v) (8 mg/mL)): Form F
Crystalline Form formed by fast cooling of hot saturated solution ([9]; FC7 Methanol/MTBE = 1/1 (v/v) (13 mg/mL)): Form H (MTBE solvate)
Crystalline Form formed by equilibration ([10]; EQ20 Water (64 mg/mL)): Form D (mono hydrate)
Crystalline Form formed by equilibration ([10]; EQ21 Methanol (63 mg/mL)): Form C (hemi-hydrate)
Crystalline Form formed by equilibration ([10]; EQ22 Methanol/water = 1/1 (v/v) (64 mg/mL)): Form E (hemi-hydrate)
Crystalline Form formed by equilibration ([10]; EQ24 Ethanol/water = 1/1 (v/v) (63 mg/mL)): Form C (hemi-hydrate)
Crystalline Form formed by equilibration ([10]; EQ26 Acetone (65 mg/mL)): Form G
Crystalline Form formed by equilibration ([10]; EQ27 Acetone/water = 1/1 (v/v) (63 mg/mL)): Form I
Crystalline Form formed by equilibration ([10]; EQ29 t-Butyl methyl ether (65 mg/mL)): Form H (MTBE solvate)
Crystalline Form formed by equilibration ([10]; EQ30 t-Butyl methyl ether/water = 95/5 (v/v) (63 mg/mL)): Form H (MTBE solvate)
